Values belong to the compound of their own block, whether it stands above or below them.
Key:
Clk4 = Clk4 (Homo sapiens, UniProt Q9HAZ1); assay: Kinase Glo; type: biochemical; conditions: matrix library, Kinase Glo (Promega) assay, Figure 4
DRAK = assay: DiscoverRX KINOMEscan binding; conditions: 10 μM
CSNK1E = CSNK1E (Homo sapiens, UniProt P49674); assay: DiscoverRX KINOMEscan binding; conditions: read-out: % control CSNK1E
Clk3 = Clk3 (Homo sapiens, UniProt P49761); conditions: cited from earlier work
[1] = phosphate buffered saline (PBS) and assay media
adrenergic α2A = target: T1, adrenergic α2A (Homo sapiens, UniProt P08913); assay: Ricerca LeadProfiling off-target screen; conditions: read-out: inhibition or stimulation, adrenergic α2A
T1 sequence (P08913 1-465): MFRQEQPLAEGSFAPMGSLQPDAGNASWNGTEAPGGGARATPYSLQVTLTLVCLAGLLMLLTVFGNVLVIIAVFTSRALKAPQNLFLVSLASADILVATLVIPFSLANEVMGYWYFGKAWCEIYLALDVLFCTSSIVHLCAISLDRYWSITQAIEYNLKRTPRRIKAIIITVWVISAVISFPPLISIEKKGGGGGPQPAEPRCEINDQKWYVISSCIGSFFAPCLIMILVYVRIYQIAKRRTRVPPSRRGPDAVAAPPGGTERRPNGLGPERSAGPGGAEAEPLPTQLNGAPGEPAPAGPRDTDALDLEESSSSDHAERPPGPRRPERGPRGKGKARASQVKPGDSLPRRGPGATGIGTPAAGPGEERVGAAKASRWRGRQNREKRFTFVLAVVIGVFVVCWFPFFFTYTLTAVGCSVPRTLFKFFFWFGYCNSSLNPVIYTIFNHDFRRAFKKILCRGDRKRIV

[2] = target: norepinephrine transporter (NET) (Homo sapiens, UniProt P23975); assay: Ricerca LeadProfiling off-target screen; type: binding; conditions: read-out: inhibition or stimulation, norepinephrine transporter (NET)
[3] = target: dopamine transporter (DAT) (Homo sapiens, UniProt Q01959); assay: Ricerca LeadProfiling off-target screen; type: binding; conditions: read-out: inhibition or stimulation, dopamine transporter (DAT)
Chain of dopamine transporter (DAT) (Q01959 whole entry): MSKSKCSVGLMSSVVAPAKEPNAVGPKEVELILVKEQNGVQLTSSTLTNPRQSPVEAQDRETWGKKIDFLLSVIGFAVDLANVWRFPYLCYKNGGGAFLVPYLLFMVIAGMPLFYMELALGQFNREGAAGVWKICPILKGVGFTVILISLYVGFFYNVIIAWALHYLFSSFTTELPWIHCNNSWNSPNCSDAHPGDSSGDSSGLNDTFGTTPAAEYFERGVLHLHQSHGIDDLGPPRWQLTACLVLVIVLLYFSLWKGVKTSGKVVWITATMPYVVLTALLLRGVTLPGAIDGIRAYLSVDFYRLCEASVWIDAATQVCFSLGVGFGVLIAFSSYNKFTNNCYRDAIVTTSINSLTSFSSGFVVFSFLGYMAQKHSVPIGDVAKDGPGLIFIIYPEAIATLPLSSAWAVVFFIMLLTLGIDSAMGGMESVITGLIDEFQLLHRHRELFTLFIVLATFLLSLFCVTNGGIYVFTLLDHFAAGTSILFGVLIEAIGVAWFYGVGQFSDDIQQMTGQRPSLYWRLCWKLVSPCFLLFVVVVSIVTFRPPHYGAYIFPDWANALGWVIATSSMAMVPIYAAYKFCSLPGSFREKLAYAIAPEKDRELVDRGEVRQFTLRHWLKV

Chain of Clk4 (Q9HAZ1 whole entry, species assumed): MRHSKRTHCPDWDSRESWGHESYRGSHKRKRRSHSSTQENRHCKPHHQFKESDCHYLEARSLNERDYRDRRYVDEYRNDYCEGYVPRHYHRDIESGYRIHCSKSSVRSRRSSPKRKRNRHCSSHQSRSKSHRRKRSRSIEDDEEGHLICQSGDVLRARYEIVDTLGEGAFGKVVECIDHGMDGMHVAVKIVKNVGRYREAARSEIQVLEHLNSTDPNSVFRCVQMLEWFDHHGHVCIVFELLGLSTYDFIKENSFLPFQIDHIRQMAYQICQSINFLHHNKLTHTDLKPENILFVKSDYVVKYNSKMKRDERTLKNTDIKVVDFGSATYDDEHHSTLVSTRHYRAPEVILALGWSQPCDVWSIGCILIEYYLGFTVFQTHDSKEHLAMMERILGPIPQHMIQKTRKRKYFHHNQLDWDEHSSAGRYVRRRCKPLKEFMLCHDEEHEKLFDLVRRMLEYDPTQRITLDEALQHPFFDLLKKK
Chain of Clk3 (P49761 whole entry): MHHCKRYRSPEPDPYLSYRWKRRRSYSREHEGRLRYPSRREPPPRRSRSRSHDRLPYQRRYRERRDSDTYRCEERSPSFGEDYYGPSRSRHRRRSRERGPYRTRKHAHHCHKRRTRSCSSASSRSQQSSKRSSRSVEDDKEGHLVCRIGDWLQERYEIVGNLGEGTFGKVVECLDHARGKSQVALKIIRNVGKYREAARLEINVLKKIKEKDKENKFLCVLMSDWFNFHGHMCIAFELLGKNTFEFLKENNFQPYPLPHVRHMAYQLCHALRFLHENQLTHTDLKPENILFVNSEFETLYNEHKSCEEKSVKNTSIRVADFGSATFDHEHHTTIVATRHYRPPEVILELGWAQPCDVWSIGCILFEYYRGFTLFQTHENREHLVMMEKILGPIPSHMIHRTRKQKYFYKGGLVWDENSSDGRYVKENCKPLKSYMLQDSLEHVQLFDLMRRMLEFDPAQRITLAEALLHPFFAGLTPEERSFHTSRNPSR
Chain of norepinephrine transporter (NET) (P23975 whole entry): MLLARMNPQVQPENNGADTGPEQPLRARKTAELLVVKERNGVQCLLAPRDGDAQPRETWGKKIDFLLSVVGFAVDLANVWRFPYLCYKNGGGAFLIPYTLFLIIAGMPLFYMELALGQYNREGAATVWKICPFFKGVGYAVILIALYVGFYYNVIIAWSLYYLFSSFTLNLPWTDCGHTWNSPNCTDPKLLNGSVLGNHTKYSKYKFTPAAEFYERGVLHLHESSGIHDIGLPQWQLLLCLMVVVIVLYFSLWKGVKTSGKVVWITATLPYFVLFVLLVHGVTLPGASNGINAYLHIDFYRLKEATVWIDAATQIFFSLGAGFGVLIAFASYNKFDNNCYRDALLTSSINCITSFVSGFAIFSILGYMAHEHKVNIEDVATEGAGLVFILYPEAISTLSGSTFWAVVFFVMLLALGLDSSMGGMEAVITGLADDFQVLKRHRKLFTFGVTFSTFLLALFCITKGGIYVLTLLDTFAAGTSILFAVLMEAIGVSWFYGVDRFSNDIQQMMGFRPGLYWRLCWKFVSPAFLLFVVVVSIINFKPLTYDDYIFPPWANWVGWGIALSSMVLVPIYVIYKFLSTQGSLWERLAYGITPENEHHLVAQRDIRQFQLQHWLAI
Chain of CSNK1E (P49674 whole entry): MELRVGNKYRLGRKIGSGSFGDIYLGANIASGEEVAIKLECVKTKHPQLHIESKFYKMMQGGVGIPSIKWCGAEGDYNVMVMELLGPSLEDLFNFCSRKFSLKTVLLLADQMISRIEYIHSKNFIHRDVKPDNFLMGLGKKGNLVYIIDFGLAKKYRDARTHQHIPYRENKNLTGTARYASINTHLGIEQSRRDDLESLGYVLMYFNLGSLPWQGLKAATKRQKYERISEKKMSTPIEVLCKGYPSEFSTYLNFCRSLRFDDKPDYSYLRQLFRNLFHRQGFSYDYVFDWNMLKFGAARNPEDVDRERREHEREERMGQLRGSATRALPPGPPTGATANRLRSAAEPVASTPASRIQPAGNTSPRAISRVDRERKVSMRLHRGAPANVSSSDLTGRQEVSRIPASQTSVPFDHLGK

- activity against Clk4 (Clk4): active
SMILES: COc1ccc(-c2nccc(NCc3ccc(Cl)c(Cl)c3)n2)cc1 [Compound G2]

- % control DRAK (DRAK): < 10 % control
- remaining binding at 10 µM (CSNK1E): < 10%
SMILES: Clc1ccc(CNc2nccc(-c3ccc4[nH]ncc4c3)n2)cc1Cl [Compound 22]

SMILES: CCN1/C(=C/C(C)=O)Sc2ccc(OC)cc21 [TG003]
- Clk3 activity (Clk3): inactive

SMILES: O=C1NC(Nc2ccccc2)=N/C1=C\c1ccc2c(c1)OCO2 [Leucettine L41]
- IC50 (Clk3; read-out: Clk3 IC50): 4.5 µM

- activity against Clk4 (Clk4): active
SMILES: COc1cccc(-c2nccc(NCc3ccc(Cl)c(Cl)c3)n2)c1 [Compound C2]

SMILES: Clc1ccc(CNc2ccnc(-c3ccc4c(c3)OCO4)n2)cc1 [Compound A4]
- activity against Clk4 (Clk4): active

SMILES: Clc1cc(Cl)cc(CNc2ncncc2-c2ccc3c(c2)OCO3)c1 [Compound 35]
- plasma stability (Plasma stability, mouse): stable
- solubility [1]: limited
- plasma stability (Plasma stability, human): stable
- inhibition at 10 µM (adrenergic α2A): > 50%
- inhibition at 10 µM [2]: > 50%
- inhibition at 10 µM [3]: > 50%
- cell permeability (Cell permeability): moderately cell permeable

- activity against Clk4 (Clk4): active
SMILES: Clc1ccc(CNc2ccnc(-c3ccc4c(c3)OCO4)n2)cc1Cl [Compound A2]

- activity against Clk4 (Clk4): active
SMILES: COc1ccc(-c2nccc(NCc3ccc(Cl)cc3)n2)cc1 [Compound G4]

From article PMC3664191 (Bioorganic & medicinal chemistry letters, 2013)
